# Test results reported in patent publication US20190388421A1, “NOVEL COMPOUNDS AND PHARMACEUTICAL COMPOSITIONS THEREOF FOR THE TREATMENT OF FIBROSIS” (Galapagos NV, priority 2016, published 2019).
# pEC50: −log10 of the molar value.
# Assays:
# [1] = biological target: T1, human GPCR sphingosine 1-phosphate receptor 2 (S1PR2) (Homo sapiens, UniProt O95136); test: S1P2 antagonist assay (Ca2+ flux, S1P at EC80); type: cell-based; conditions: CHO-S1PR2 cells, highest concentration 20 μM
# T1 construct: host or cells: CHO
# T1 sequence (O95136 whole entry): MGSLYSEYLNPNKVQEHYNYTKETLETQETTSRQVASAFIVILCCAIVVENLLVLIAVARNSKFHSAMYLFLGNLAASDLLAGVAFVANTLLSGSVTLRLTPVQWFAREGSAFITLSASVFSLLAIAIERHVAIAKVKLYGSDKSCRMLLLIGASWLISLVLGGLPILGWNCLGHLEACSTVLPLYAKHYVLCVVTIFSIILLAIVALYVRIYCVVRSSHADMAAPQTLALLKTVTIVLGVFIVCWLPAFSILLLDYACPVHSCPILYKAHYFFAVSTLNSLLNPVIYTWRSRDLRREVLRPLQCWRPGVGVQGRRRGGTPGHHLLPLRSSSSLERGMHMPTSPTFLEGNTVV
# Procedure: Triggering of S1PR2 by administration of Sphingosine-1-phosphate leads to a transient increase in intracellular Ca^2+. The Ca^2+ flux assays are measuring the release of Ca^2+ intracellularly by use of a Ca^2+ sensitive fluorescent dye. The assay is firstly run in agonist mode (incubation of compounds alone) to ensure that the Ca^2+ released measured is not caused by the test compound having an agonistic effect. Then the assay is continued in antagonist mode (Sphingosine-1-Phosphate added to incubated medium containing the test compounds).
# CHO cells stably overexpressing human GPCR sphingosine 1-phosphate receptor 2 (CHO—S1PR2 Perkin Elmer; ES-594-A) are seeded from a frozen stock in 384 wells sterile microplates (50 μL; 7,500 cells/well) and are incubated overnight at 37° C. and 5% CO2. The next day cells are washed twice with starvation medium (F-12 Ham's medium containing 0.1% BSA (Fatty acid free: FAF)) and left in […] starvation medium for 1 h at 37° C., 5% CO2. After this starvation cells are incubated with […] buffer containing the Ca^2+-sensitive fluorescent dye (0.5 mg Fluo8+125 mg Allura Red in 100 ml of 1% DMSO, in HBSS+20 mM Hepes+5 mM probenecid). The cells are incubated for an additional 1 hour after which 10 μL compounds, diluted in HBSS buffer with 20 mM Hepes and 0.1% BSA (FAF), are added to the cells and intracellular Ca^2+ changes are immediately measured by reading fluorescence during 3 min (FDSS/μCELL reader). The ratio of the maximal fluorescence over the background fluorescence before compound injection is used to determine compound response.
# (§1) After readout of the agonist activity, the plates are incubated for 15 min at 37° C. and 5% CO2. Then, cells are stimulated with 10 μL Sphingosine-1-Phosphate (S1P) (Avanti Polar lipids-860492P) at its EC80 concentration. Intracellular Ca^2+ changes are immediately measured by reading fluorescence during 3 min (FDSS/μCELL reader). The ratio of the maximal fluorescence over the background fluorescence before compound injection is used to determine compound response.
# (§2) For EC50 determination, a 10 point dilution series of compounds starting from 23.3 μM and 20 μM highest final concentration for agonist and antagonist respectively, ⅓ dilution was performed.
# (§3) The obtained ratio's for agonist and antagonist readout were normalized versus vehicle and EC100 of S1P as controls for agonist mode and versus vehicle and EC80 of S1P for antagonist mode. From these normalized data EC50 of the compounds are derived.
# [2] = biological target: T2, human GPCR sphingosine 1-phosphate receptor 1 (S1PR1) (Homo sapiens, UniProt P21453); test: S1PR1 selectivity assay (Ca2+ flux, antagonist); type: cell-based; conditions: S1P1 antagonist EC50, CHO cells overexpressing human S1PR1 and Gq protein
# T2 construct: host or cells: CHO
# T2 sequence (P21453 whole entry): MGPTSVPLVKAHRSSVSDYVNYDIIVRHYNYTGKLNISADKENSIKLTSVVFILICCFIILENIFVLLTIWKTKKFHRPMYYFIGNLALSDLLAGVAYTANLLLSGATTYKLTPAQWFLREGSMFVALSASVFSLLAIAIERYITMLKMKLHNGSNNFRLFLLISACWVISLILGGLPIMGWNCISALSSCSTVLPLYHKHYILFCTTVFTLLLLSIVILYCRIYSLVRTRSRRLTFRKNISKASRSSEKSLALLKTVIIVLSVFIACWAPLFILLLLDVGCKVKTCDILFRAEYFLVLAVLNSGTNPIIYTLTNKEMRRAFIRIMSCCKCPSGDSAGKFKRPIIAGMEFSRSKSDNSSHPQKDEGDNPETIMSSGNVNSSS
# Procedure: as §1, §2, §3
# (§4) To evaluate the selectivity of the compounds for S1PR2 over S1PR1 and S1PR5, a similar assay set up as described above for the S1PR2 calcium flux assays was performed: CHO cells stably overexpressing human GPCR sphingosine 1-phosphate receptor 1 and Gq protein (Euroscreen, FAST-0197A) or overexpressing human GPCR sphingosine 1-phosphate receptor 5 and Gq protein were used (Perkin Elmer, ES-593-A). In case of the S1PR5 assay triggering was done with an S1PR5 specific agonist instead of with S1P (Hobson et al., 2015).
# [3] = biological target: T3, human GPCR sphingosine 1-phosphate receptor 5 (S1PR5) (Homo sapiens, UniProt Q9H228); test: S1PR5 selectivity assay (Ca2+ flux, antagonist, S1PR5 specific agonist trigger); type: cell-based; conditions: S1P5 antagonist EC50, CHO cells overexpressing human S1PR5 and Gq protein
# T3 construct: host or cells: CHO
# T3 sequence (Q9H228 whole entry): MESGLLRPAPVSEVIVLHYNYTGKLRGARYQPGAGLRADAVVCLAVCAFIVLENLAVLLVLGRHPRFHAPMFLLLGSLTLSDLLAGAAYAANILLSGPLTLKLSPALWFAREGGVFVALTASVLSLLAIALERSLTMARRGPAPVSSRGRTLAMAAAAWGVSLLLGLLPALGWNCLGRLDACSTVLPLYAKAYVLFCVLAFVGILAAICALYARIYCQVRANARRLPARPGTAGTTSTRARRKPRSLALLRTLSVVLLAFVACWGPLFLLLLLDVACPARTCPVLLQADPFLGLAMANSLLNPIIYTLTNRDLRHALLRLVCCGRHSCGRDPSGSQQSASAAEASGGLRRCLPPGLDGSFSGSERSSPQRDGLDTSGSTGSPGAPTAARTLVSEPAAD
# Procedure: as §1, §2, §3, §4
# S1PR2 = biological target: T4, S1PR2 (Homo sapiens, UniProt O95136); test: GTP-γS binding assay ([35S]GTPγS, S1P at EC80, S1PR2 membranes); type: biochemical; conditions: membranes from stable cell line over expressing S1PR2, read-out: S1PR2 EC
# T4 construct: expressed in transfected cells
# T4 sequence (O95136 whole entry): as the sequence (O95136 whole entry) above
# Procedure: The following assay can be used for determination of S1PR2 activation. The [^35S] GTPγS assay measures the level of G protein activation following agonist occupation of a GPCR, by determining the binding of the non-hydrolysable analog [^35S] GTPγS to Gα subunits.
# The assay is performed in a 96 well plate where the following reagents are added. First 50 μL compound is added into the assay plate, followed by addition of 20 μL S1P at EC80 concentration (concentration which gives 80% of the activity of S1PR2). Then, 30 μL of a mixture consisting of membranes-GTPγS-SpA beads is added [mixture consists of 2.5 μg/well membranes derived from stable cell line over expressing S1PR2 (membranes are pre-incubated with 1 μM GDP for 15 min at 4° C.), 0.1 nM [35S]GTPγS (Perkin Elmer, NEG030) and 0.5 mg/well PVT-WGA SpA beads (Perkin Elmer, RPNQ0001)]. All components are diluted in assay buffer containing 20 mM Tris pH 7.5; 10 mM MgCl2; 100 mM NaCl; 0.1% BSA FAF; 50 ug/ml saponin. After an incubation for 4 h at room temperature, plates are centrifuged at 2000 rpm during 20 min. Plates are read on a Topcount reader (Perkin Elmer) immediately after centrifugation (readout time, 1 min/well).
Structure (SMILES),pEC50 [1],pEC50 [2],pEC50 [3],pEC50 (S1PR2)
"Cc1cc(CNC(=O)Nc2cc(OCC3COCCO3)nc(C(F)(F)F)c2)nnc1-c1cn(C)nc1C(F)(F)F (stereo not drawn) [Compound 37, 1-[2-(1,4-dioxan-2-ylmethoxy)-6-(trifluoromethyl)4-pyridyl]-3-[[5-methyl-6-[1-methyl-3-(trifluoromethyl)pyrazol-4-yl]pyridazin-3-yl]methyl]urea]",5.27,≤ 4.70,≤ 4.70,5.02
"CCOc1nc(C#N)cc(NC(=O)NCc2cc(C)c(-c3cn(C)nc3C(F)(F)F)nn2)c1C1CC1 [Compound 58, 1-(6-cyano-3-cyclopropyl-2-ethoxy-4-pyridyl)-3-[[5-methyl-6-[1-methyl-3-(trifluoromethyl)pyrazol-4-yl]pyridazin-3-yl]methyl]urea]",7.16,≤ 4.70,≤ 4.70,6.65
"Cc1cc(CNC(=O)Nc2ccnc(C(F)(F)F)c2)nnc1-c1cn(C)nc1C(F)(F)F [Compound 43, 1-[[5-methyl-6-[1-methyl-3-(trifluoromethyl)pyrazol-4-yl]pyridazin-3-yl]methyl]-3-[2-(trifluoromethyl)-4-pyridyl]urea]",5.22,≤ 4.70,≤ 4.70,5.33
"COCCOc1cc(NC(=O)NCc2cc(C)c(-c3cn(C)nc3C(F)(F)F)nn2)cc(C(F)(F)F)n1 [Compound 25, 1-[2-(2-methoxyethoxy)-6-(trifluoromethyl)-4-pyridyl]-3-[[5-methyl-6-[1-methyl-3-(trifluoromethyl)pyrazol-4-yl]pyridazin-3-yl]methyl]urea]",6.10,≤ 4.70,≤ 4.70,5.69
"CCOc1nc(C)cc(NC(=O)NCc2cc(C)c(N3C[C@@H](C)O[C@@H](C)C3)nn2)c1C [Compound 95, 1-[[6-[(2R,6S)-2,6-dimethyl-morpholin-4-yl]-5-methyl-pyridazin-3-yl]methyl]-3-(2-ethoxy-3,6-dimethyl-4-pyridyl)urea]",–,5.18,6.09,–
"Cn1cc(-c2nnc(CNC(=O)Nc3cc(Cl)nc(OCC(F)F)c3)cc2N2CCOCC2)c(C(F)(F)F)n1 [Compound 62, 1-[2-chloro-6-(2,2-difluoroethoxy)-4-pyridyl]-3-[[6-[1-methyl-3-(trifluoromethyl)pyrazol-4-yl]-5-morpholino-pyridazin-3-yl]methyl]urea]",5.50,6.46,4.96,5.63
Cc1cn(-c2nnc(CNC(=O)Nc3cc(Cl)nc(OCC(F)F)c3)cc2C)c(C)n1 [Compound 70],6.04,≤ 4.70,≤ 4.70,6.04
"CCOc1cc(NC(=O)NCc2cc(C)c(-c3cn(C)nc3C(F)(F)F)nn2)nc(OCC)n1 [Compound 31, 1-(2,6-diethoxy-pyrimidin-4-yl)-3-[[5-methyl-6-[1-methyl-3-(trifluoromethyl)pyrazol-4-yl]pyridazin-3-yl]methyl]urea]",5.50,–,–,5.78
"Cc1cc(CNC(=O)Nc2cc(OCC(F)F)nc(C3CC3)c2)nnc1-c1cn(C)nc1C(F)(F)F [Compound 29, 1-[2-cyclopropyl-6-(2,2-difluoroethoxy)-4-pyridyl]-3-[[5-methyl-6-[1-methyl-3-(trifluoromethyl)pyrazol-4-yl]pyridazin-3-yl]methyl]urea]",7.56,–,–,6.56
"CCOc1cc(NC(=O)NCc2cc(C)c(N3CC(C)O[C@H](C)C3)nn2)cc(C(F)(F)F)n1 (stereo in doubt) [Compound 100, 1-[[6-[(2R,6S)-2,6-dimethyl-morpholin-4-yl]-5-methyl-pyridazin-3-yl]methyl]-3-(2-ethoxy-6-(trifluoromethyl)-4-pyridyl]urea]",–,5.18,5.61,–

# More lines, in order of rising pEC50 [1], values ahead:
pEC50 [1],pEC50 [2],pEC50 [3],pEC50 (S1PR2),Structure (SMILES)
7.63,≤ 4.70,≤ 4.70,6.27,"Cc1cc(CNC(=O)Nc2cnc(OCC(F)F)c(Cl)c2)nnc1-c1cn(C)nc1C(F)(F)F [Compound 9, 1-[5-chloro-6-(2,2-difluoroethoxy)-3-pyridyl]-3-[[5-methyl-6-[1-methyl-3-(trifluoromethyl)pyrazol-4-yl]pyridazin-3-yl]methyl]urea]"
7.75,≤ 4.70,≤ 4.70,6.48,"Cc1cc(CNC(=O)Nc2cnc(OCC(F)F)c(C(F)(F)F)c2)nnc1-c1cn(C)nc1C(F)(F)F [Compound 7, 1-[6-(2,2-difluoroethoxy)-5-(trifluoromethyl)-3-pyridyl]-3-[[5-methyl-6-[1-methyl-3-(trifluoromethyl)pyrazol-4-yl]pyridazin-3-yl]methyl]urea]"
7.82,≤ 4.70,≤ 4.70,6.55,"CCOc1ncc(NC(=O)NCc2cc(C)c(-c3cn(C)nc3C(F)(F)F)nn2)cc1C(F)(F)F [Compound 10, 1-[6-ethoxy-5(trifluoromethyl)-3-pyridyl]-3-[[5-methyl-6-[1-methyl-3-(trifluoromethyl)pyrazol-4-yl]pyridazin-3-yl]methyl]urea]"
7.93,–,–,6.23,"Cc1cc(CNC(=O)Nc2cnc(OCC(F)(F)F)c(C(F)(F)F)c2)nnc1-c1cn(C)nc1C(F)(F)F [Compound 12, 1-[[5-methyl-6-[1-methyl-3-(trifluoromethyl)pyrazol-4-yl]pyridazin-3-yl]methyl]-3-[6-(2,2,2-trifluoroethoxy)-5-(trifluoromethyl)-3-pyridyl]urea]"
7.95,–,–,6.79,"Cc1cc(CNC(=O)Nc2cc(Cl)c(F)c(Cl)c2)nnc1-c1cn(C)nc1C(F)(F)F [Compound 32, 1-(3,5-dichloro-4-fluoro-phenyl)-3-[[5-methyl-6-[1-methyl-3-(trifluoromethyl)pyrazol-4-yl]pyridazin-3-yl]methyl]urea]"
8.04,5.18,≤ 4.70,7.04,CCOc1cc(NC(=O)NCc2cc(C)c(-c3cn(COC)nc3C(F)(F)F)nn2)cc(Cl)n1 [Compound 15]
8.06,≤ 4.70,≤ 4.70,7.27,"CCOc1cc(NC(=O)NCc2cc(C)c(-c3cn(C)nc3C(F)(F)F)nn2)cnc1Cl [Compound 24, 1-(6-chloro-5-ethoxy-3-pyridyl)-3-[[5-methyl-6-[1-methyl-3-(trifluoromethyl)pyrazol-4-yl]pyridazin-3-yl]methyl]urea]"
8.07,5.31,5.18,7.44,"Cc1cc(CNC(=O)Nc2cc(Cl)nc(OCC(F)F)c2)nnc1-c1cn(C)nc1C(F)(F)F [Compound 17, 1-[2-chloro-6-(2,2-difluoroethoxy)-4-pyridyl]-3-[[5-methyl-6-[1-methyl-3-(trifluoromethyl)pyrazol-4-yl]pyridazin-3-yl]methyl]urea]"
